Legend:
Glucocorticoid receptor = molecular target: T1, Glucocorticoid receptor (Homo sapiens, UniProt P04150); test: Displacement of 10 nM [3H]dexamethasone from human Glucocorticoid receptor
T1 sequence (P04150 whole entry): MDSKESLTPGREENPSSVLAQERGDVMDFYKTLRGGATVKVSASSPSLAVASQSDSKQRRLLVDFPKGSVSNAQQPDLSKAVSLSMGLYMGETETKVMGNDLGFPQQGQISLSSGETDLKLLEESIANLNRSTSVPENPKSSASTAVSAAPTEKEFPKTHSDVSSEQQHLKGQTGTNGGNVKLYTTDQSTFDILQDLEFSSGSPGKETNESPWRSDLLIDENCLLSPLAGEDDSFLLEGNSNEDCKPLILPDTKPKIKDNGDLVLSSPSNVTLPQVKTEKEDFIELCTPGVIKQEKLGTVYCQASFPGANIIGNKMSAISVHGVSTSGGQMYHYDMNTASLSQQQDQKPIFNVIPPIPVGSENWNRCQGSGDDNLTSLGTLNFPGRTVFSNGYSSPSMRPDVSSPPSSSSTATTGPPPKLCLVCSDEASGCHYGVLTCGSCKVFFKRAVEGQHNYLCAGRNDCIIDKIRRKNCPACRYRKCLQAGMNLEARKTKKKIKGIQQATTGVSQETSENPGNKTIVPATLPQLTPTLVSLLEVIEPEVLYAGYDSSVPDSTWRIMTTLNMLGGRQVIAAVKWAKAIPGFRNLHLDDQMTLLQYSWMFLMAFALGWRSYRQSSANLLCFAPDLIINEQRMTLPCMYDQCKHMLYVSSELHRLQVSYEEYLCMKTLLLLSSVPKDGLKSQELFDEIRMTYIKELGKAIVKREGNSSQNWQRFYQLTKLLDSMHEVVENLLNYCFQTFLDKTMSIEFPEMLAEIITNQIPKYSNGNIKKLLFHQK

[1] = molecular target: T2, Estrogen receptor (Homo sapiens) (UniProt P03372); test: Displacement of radioligand from human Estrogen receptor alpha, percent inhibition at 10 uM
T2 sequence (whole entry): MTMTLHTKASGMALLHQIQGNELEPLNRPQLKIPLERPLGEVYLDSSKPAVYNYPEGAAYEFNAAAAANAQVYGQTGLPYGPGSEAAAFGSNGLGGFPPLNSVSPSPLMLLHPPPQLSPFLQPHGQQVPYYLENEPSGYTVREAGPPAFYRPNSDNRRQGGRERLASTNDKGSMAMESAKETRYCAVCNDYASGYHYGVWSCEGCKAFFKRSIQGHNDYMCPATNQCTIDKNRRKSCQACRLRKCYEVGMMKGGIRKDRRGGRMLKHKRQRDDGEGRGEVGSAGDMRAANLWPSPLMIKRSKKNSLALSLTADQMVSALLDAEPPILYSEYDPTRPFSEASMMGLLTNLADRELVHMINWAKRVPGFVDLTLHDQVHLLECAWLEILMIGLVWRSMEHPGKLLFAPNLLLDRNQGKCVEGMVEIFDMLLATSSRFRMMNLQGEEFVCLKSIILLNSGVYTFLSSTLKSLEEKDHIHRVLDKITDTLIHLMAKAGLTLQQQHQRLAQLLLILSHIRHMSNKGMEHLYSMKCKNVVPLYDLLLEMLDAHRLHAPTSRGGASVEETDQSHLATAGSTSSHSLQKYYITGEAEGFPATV

Progesterone receptor = molecular target: T3, Progesterone receptor (Homo sapiens, UniProt P06401); test: Displacement of radioligand from human Progesterone receptor
T3 sequence (P06401 whole entry): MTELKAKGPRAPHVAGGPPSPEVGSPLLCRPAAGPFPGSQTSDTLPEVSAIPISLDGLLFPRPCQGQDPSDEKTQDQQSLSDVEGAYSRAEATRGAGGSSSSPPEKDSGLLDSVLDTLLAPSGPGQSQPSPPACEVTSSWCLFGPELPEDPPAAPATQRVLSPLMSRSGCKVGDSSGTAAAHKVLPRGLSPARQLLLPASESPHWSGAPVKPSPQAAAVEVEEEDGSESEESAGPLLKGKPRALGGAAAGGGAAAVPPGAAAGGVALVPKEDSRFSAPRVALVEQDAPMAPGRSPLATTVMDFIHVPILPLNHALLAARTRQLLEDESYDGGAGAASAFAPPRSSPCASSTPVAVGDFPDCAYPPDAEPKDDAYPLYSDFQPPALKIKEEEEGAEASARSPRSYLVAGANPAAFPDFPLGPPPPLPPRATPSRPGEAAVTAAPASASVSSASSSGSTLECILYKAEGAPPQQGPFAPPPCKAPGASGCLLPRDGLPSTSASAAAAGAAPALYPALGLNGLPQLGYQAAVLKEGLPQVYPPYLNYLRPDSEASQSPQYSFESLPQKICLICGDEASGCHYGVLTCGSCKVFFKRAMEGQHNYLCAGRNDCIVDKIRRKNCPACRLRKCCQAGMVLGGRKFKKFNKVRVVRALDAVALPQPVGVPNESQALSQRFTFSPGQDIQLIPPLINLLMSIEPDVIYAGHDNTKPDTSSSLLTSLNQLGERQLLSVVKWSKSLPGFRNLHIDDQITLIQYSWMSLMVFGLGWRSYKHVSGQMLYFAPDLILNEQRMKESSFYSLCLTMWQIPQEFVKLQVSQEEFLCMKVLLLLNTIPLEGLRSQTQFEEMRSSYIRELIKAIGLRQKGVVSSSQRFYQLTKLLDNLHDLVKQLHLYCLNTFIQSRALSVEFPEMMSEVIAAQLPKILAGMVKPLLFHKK

Structure (SMILES) | Ki (Glucocorticoid receptor) | inhibition [1] | Ki (Progesterone receptor)
CC#C[C@]1(O)CCC2C3CCC4=CC(=O)CC[C@]4(Cc4ccc(C)cc4)C3=CC[C@@]21C (stereo partly specified) | 0.1 nM | 20% | –
O=C1CC[C@@]2(Cc3ccccc3)c3ccc(O)cc3CC[C@@H]2C1 | 5.96 nM | 45% | > 10000 nM
Oc1ccc2c(c1)CC[C@@H]1C[C@@](O)(C#CCl)CC[C@@]21Cc1ccccc1 | 0.1 nM | 62% | > 10000 nM
CC#C[C@@]1(O)CC[C@@]2(Cc3ccccc3)c3ccc(O)cc3CC[C@@H]2C1 | 0.17 nM | 50% | > 10000 nM

— ChEMBL document CHEMBL1135457 (J Med Chem, 2002)
